From patent US6469027B1, “N-methyl-D-aspartate (NMDA) receptor blockers for the prevention of atherosclerosis” (The Board of Regents of the University of Nebraska, priority 1996, dated 2002)

Experiments:
[1] = test system: c-myb; assay: c-myb expression in TA-VSMCs; assay type: cell-based
[2] = test system: diacylglycerol; assay: sn-1,2-Diacylglycerol assay in VSMC; assay type: cell-based, chicken
Protocol: FIGS. 7A-7C are graphs illustrating the effect of H[cys] on diacylglycerol content in N-VSMC. (A) Time course of changes of membrane diacylglycerol content cell treated with 100μM H[cys] for the various times. Cells were recovered, membrane lipids extracted and diacylglycerol amounts determined as described in Methods. Results are expressed as the mean ± standard error of quadruplicate incubations from six independent experiments. (B) Effects of varying concentrations of H[cys] on diacylglycerol synthesis. Cells were treated for 30 min with different concentrations of H[cys] and membrane lipids were isolated and the diacylglycerol content determined. (C) Effect of PKC inhibitors on H[cys] mediated cell proliferation. N-VSMC cultures were grown in 1% FBS and 100 μM H[cys] in the presence and absence of staurosporine and cheleyrithrine chloride for the times (days-d) indicated. Cells were counted in quadruplicate in a Coulter counter every three days. Values represent the mean ±S.D. from four independent experiments.
.sn-1,2-Diacylglycerol assay: VSMC were treated with 0.01 to 100 μM H[cys] for 15-60 min. Cells were harvested and lipids were extracted by the method of Priess et al., (18). The analysis of diacylglycerol synthesis was as described previously by Wrenn et al. Wrenn, R. W. et al. (1993). […]

[3] = test system: c-fos; assay: c-fos mRNA in N-VSMC (RNA blot); assay type: cell-based, chicken
Protocol: (§1) FIGS. 3A, 3B and 3C are RNA blot analyses of c-fos and c-myb mRNA isolated from N-VSMC cultures. Cultures were incubated in the absence and presence of 200μM H[cys] for 0, (lane 1); 15 min, (lane 2); 30 min, (lane 3); 45 min, (lane 4) and 60 min, (lane 5); and analyzed for c-fos expression. In FIG. 3B, the time course of c-myb MRNA induction in the presence of 200μM H[cys] for 0 h, (lane 1); 8 h, (lane 2); 16 h, (lane 3); 24 h, (lane 4). The c-fos transcripts were analyzed by northern blot and normalized to β actin expression. The amount of c-myb mRNA levels were normalized to estrogen receptor (ER) transcripts as determined by RT-PCR. […] The amount of c-myb mRNA levels were normalized to estrogen receptor (ER) transcripts as determined by RT-PCR. The amount of specific radiolabeling in the autoradiograph was quantified by scanning densitometry. The size of the c-Myb protein is 75 kilodaltons. The 75 kilodalton band is defined as c-Myb because immunoprecipitation of this protein was not detected in the presence of synthetic polypeptide [[…] encoded by sequences 1080-1133].
RNA Blot Analysis: Total RNA was isolated from VSMC derived from thoracic and abdominal aorta by homogenization, and lysis with guanidinium isothiocyanate was followed by phenol-chloroform extraction. […]

[4] = test system: PDGG-AA; assay: PDGG-AA release from TA-VSMCs; assay type: cell-based; conditions: 0.2 mM
[5] = test system: c-myb; assay: c-myb expression in N-VSMC (RT-PCR, immunoprecipitation and western blot); assay type: cell-based, chicken
Protocol: as §1
FIG. 4 is a graph illustrating the analysis of c-myb synthesis in response to NMDA receptor antagonist, Mk-801 and CGS19755. Immunoprecipitation and western blotting of radiolabeled c-Myb from N-VSMC treated with 200μMH[cys] in the presence and absence of 50 μM Mk-801 or 1 mM CGS19755. Cell cultures were treated with and without H[cys] for 24 hours, extracts were immunoprecipitated with anti c-myb IgG and samples were separated by SDS-PAGE gels and western blotted. The amount of specific radiolabeling in the autoradiograph was quantified by scanning densitometry. The size of the c-Myb protein is 75 kilodaltons. The 75 kilodalton band is defined as c-Myb because immunoprecipitation of this protein was not detected in the presence of synthetic polypeptide [I13-[…] encoded by sequences 1080-1133].
RNA Blot Analysis: Total RNA was isolated from VSMC derived from thoracic and abdominal aorta by homogenization, and lysis with guanidinium isothiocyanate was followed by phenol-chloroform extraction. Ten micrograms of total RNA per lane was separated in a 1.5% agarose-formaldehyde gel, and the RNA was transferred by capillary transfer to a 0.45 μm nylon membrane. Filters were hybridized as previously with cDNAs labeled with [^32P]deoxycytidine5′-triphosphate to specific activities of approximately 2×10^9 cpm/μg using a random prime labeling kit (Boehringer Mannheim Biochemicals, Indianapolis, Ind.). The probes included chicken c-fos, Bactin, estrogen receptor (ER) and c myb.
Reverse Transcriptase-Polymerase Chain Reaction: Reverse transcription of 4 to 10,000 nanograms (ng) of RNA using 10 picomoles (pm) of hexamer primers was performed for 90 minutes (min) at 37° C. using 200 units superscript reverse transcriptase (Gibco BRL), in 50 mM Tris, pH, 8.2, 75 Mm KC1, 3 mM MgCl2, 10 mM dithiothreitol (DTT), 1 unit/μ1 RNasin (Promega), and 1 mM each of DATP, dCTP, dGTP, and dTTP. The samples were heated at 95° C. for 5 min to terminate the reverse transcription. The resulting cDNA was treated with 1 unit of […] at 37° C. for 20 min. A 5% fraction of the cDNA was subjected to PCR using c-myb upstream (5′ggTCCTTTgAAgATgCTgCC3′) and downstream(5′[…]gAgTCCgggTTg3′) primers; estrogen receptor (ER) (5′ggACTgCCAgCTgCCgATCTT3′) and (5′CTCACgAATgTggCgCCT3′) primers; β actin (5′AAgAggTAATCCTgACCCCTgAA3′) and (5′ACCCTgACCATCAgggAgTTCA3′) primers. PCR was performed using 0.25 μM of each primer, 3 μM cDNA, 0.2 mM of each deoxynucleotide triphosphate, 75 mM KC1, 1.5 mM MgCl2 and 0.5 unit Taq polymerase (Perkin Elmer; Cetus) in 10 mM Tris-HC1, pH 8.3 with total volume of 100 μl. […] PCR products were analyzed by electrophoresis in 1.5% agarose gels stained with ethidium bromide. PCR amplifications of all target templates and controls were run in parallel or on the same sample. […]

[6] = neural crest derived smooth muscle cells

N[C@@H](CCS)C(=O)O [homocysteine]
c-myb synthesis [1]: dose-dependent increase
concentration of maximal effect on c-myb synthesis [1]: < 2.5 mM
concentration at which increase in DAG membrane levels was first evident ([2]; 30 min): 3 µM
increase in DAG production ([2]; treated for 15-60 min): 3 fold
c-fos mRNA transcripts induced ([3]; 200 μM homocysteine): 15 fold
c-fos induction [3, 6]: induced
delay in PDGG-AA release [4]: not observed
c-myb mRNA transcripts induced ([5]; 200 μM homocysteine): 6 fold
cMyb protein ([5]; 30 and 100 μM): dose dependent increase
c-myb induction [5, 6]: induced
